# Data as given in US7632811B2, “Analogs of parathyroid hormone” (Societe de Conseils de Recherches et D'Applications …, priority 1995, dated 2009).
# Like-named read-outs stand apart in the source and are kept apart here. Non-standard residues stand in square brackets, D forms with d. Residues, ends and D or L forms follow the SMILES beside them. Cha = N[C@@H](CC1CCCCC1)C(=O)O; Ac6c = NC1(C(=O)O)CCCCC1; Nle = CCCC[C@H](N)C(=O)O; Aib = CC(C)(N)C(=O)O
# Molecular target: T1, PTH receptor present on SaOS-2 (human osteosarcoma cells) (Homo sapiens, UniProt Q03431)
# T1 construct: host or cells: SaOS-2 human osteosarcoma cells (intact, confluent monolayers)
# T1 sequence (Q03431 27-593): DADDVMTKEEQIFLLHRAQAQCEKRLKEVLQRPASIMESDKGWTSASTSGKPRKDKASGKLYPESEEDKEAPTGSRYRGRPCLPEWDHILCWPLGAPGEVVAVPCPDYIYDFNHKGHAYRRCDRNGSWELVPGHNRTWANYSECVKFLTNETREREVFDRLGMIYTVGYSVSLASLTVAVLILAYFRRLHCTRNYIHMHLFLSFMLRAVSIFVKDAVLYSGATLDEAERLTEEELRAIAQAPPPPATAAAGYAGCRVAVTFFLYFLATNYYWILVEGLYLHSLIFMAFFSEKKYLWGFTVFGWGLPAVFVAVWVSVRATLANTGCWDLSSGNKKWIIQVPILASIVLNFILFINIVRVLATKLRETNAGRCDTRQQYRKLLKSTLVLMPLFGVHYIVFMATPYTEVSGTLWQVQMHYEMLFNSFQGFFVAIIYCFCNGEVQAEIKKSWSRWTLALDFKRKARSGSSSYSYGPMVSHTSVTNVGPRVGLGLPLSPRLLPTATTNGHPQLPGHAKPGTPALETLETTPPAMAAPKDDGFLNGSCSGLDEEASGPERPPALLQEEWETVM
# Assay: Binding to PTH receptor on SaOS-2 cells (competition with mono-125I-[Nle8,18,Tyr34(3-125I)]bPTH(1-34)NH2)
# Settings: 2 hrs at room temperature, read-out: Kd (half maximal inhibition of binding of mono-125I-[Nle8,18, Tyr34(3-125I)]bPTH(1-34)NH2)
# Protocol: A. Binding to PTH Receptor
# The peptides of the invention were tested for their ability to bind to the PTH receptor present on SaOS-2 (human osteosarcoma cells). SaOS-2 cells (American Type Culture Collection, Rockville, Md.; ATCC #HTB 85) were maintained in RPMI 1640 medium (Sigma, St. Louis, Mo.) supplemented with 10% fetal bovine serum (FBS) and 2 mM glutamine at 37EC in a humidified atmosphere of 5% CO2 in air. The medium was changed every three or four days, and the cells were subcultured every week by trypsinization.
# SaOS-2 cells were maintained for four days until they had reached confluence. The medium was replaced with 5% FBS in RPMI 1640 medium and incubated for 2 hrs at room temperature with 10×10^4 cpm mono-^125I-[Nle^8,18, Tyr^34(3-^125I)]bPTH(1-34)NH2 in the presence of a competing peptides of the invention at various concentrations between 10^−11 M to 10^−4 M. The cells were washed four times with ice-cold PBS and lysed with 0.1 M NaOH, and the radioactivity associated with the cells was counted in a scintillation counter. Synthesis of mono-^125I-[Nle^8,18, Tyr^34(3-^125I)]bPTH(1-34)NH2 was carried out as described in Goldman, M. E., et al., Endocrinol., 123:1468 (1988).
# The binding assay was conducted with various peptides of the invention, and the Kd value (half maximal inhibition of binding of mono-^125I-[Nle^8,18, Tyr^34(3-^125I)]bPTH(1-34)NH2) for each peptide was calculated.
Kd (Table I) [nM],Kd (Table II) [nM],SMILES
4,–,"CC[C@H](C)[C@H](NC(=O)[C@H](CCC(=O)O)NC(=O)[C@H](CO)NC(=O)[C@@H](NC(=O)[C@@H](N)CO)C(C)C)C(=O)N[C@@H](CCC(N)=O)C(=O)N[C@@H](CC1CCCCC1)C(=O)N[C@@H](CCSC)C(=O)N[C@@H](Cc1c[nH]cn1)C(=O)N[C@@H](CC(N)=O)C(=O)N[C@@H](CC1CCCCC1)C(=O)NCC(=O)N[C@@H](CCCCN)C(=O)N[C@@H](Cc1c[nH]cn1)C(=O)N[C@@H](CC(C)C)C(=O)N[C@@H](CC(N)=O)C(=O)N[C@@H](CO)C(=O)N[C@@H](CCSC)C(=O)NC(C)(C)C(=O)N[C@@H](CCCNC(=N)N)C(=O)N[C@H](C(=O)N[C@@H](CCC(=O)O)C(=O)N[C@@H](Cc1c[nH]c2ccccc12)C(=O)N[C@@H](CC(C)C)C(=O)N[C@@H](CCCNC(=N)N)C(=O)N[C@@H](CCCCN)C(=O)N[C@@H](CCCCN)C(=O)N[C@@H](CC(C)C)C(=O)N[C@@H](CCC(N)=O)C(=O)N[C@@H](CCCCN)C(=O)N[C@H](C(=O)N[C@@H](Cc1c[nH]cn1)C(=O)N[C@@H](CC(N)=O)C(=O)N[C@@H](Cc1ccccc1)C(N)=O)C(C)C)C(C)C [[Cha^7,11, Aib^19, Lys^30]hPTH(1-34)NH2] (H-SVSEIQ[Cha]MHN[Cha]GKHLNSM[Aib]RVEWLRKKLQKVHNF-NH2)"
–,230,"CC[C@H](C)[C@H](NC(=O)[C@H](CO)NC(=O)[C@H](CCCCN)NC(=O)CNC(=O)[C@H](CCCCN)NC(=O)[C@H](CC(=O)O)NC(=O)[C@H](Cc1c[nH]cn1)NC(=O)[C@H](CC(C)C)NC(=O)[C@H](CC(C)C)NC(=O)[C@H](CCC(N)=O)NC(=O)[C@H](Cc1c[nH]cn1)NC(=O)[C@H](CCC(=O)O)NC(=O)[C@H](CO)NC(=O)[C@@H](NC(=O)[C@H](C)N)C(C)C)C(=O)N[C@@H](CCC(N)=O)C(=O)N[C@@H](CC(=O)O)C(=O)N[C@@H](CC(C)C)C(=O)N[C@@H](CCCNC(=N)N)C(=O)N[C@@H](CCCNC(=N)N)C(=O)N[C@@H](CCCNC(=N)N)C(=O)N[C@@H](CCC(=O)O)C(=O)N[C@@H](CC(C)C)C(=O)N[C@@H](CC(C)C)C(=O)N[C@@H](CCC(=O)O)C(=O)N[C@@H](CCCCN)C(=O)N[C@@H](CC(C)C)C(=O)N[C@@H](CC(C)C)C(=O)N[C@@H](CCC(=O)O)C(=O)NC1(C(=O)N[C@@H](CC(C)C)C(=O)N[C@@H](Cc2c[nH]cn2)C(=O)N[C@H](C(=O)N[C@@H](C)C(N)=O)[C@@H](C)O)CCCCC1 [[Glu^22,25,29, Leu^23,28,31, Lys^26, Ahc^30]hPTHrP(1-34)NH2] (H-AVSEHQLLHDKGKSIQDLRRRELLEKLLE[Ac6c]LHTA-NH2; N-terminus assumed)"
–,70,"CC[C@H](C)[C@H](NC(=O)[C@H](CO)NC(=O)[C@H](CCCCN)NC(=O)CNC(=O)[C@H](CCCCN)NC(=O)[C@H](CC(=O)O)NC(=O)[C@H](Cc1c[nH]cn1)NC(=O)[C@H](CC(C)C)NC(=O)[C@H](CC(C)C)NC(=O)[C@H](CCC(N)=O)NC(=O)[C@H](Cc1c[nH]cn1)NC(=O)[C@H](CCC(=O)O)NC(=O)[C@H](CO)NC(=O)[C@@H](NC(=O)[C@H](C)N)C(C)C)C(=O)N[C@@H](CCC(N)=O)C(=O)N[C@@H](CC(=O)O)C(=O)N[C@@H](CC(C)C)C(=O)N[C@@H](CCCNC(=N)N)C(=O)N[C@@H](CCCNC(=N)N)C(=O)N[C@@H](CCCNC(=N)N)C(=O)N[C@@H](CCC(=O)O)C(=O)NC1(C(=O)N[C@@H](CC(C)C)C(=O)N[C@@H](CCC(=O)O)C(=O)N[C@@H](CCCCN)C(=O)N[C@@H](CC(C)C)C(=O)N[C@@H](CC(C)C)C(=O)NC(C)(C)C(=O)N[C@@H](CCCCN)C(=O)N[C@@H](CC(C)C)C(=O)N[C@@H](Cc2c[nH]cn2)C(=O)N[C@H](C(=O)N[C@@H](C)C(N)=O)[C@@H](C)O)CCCCC1 [[Glu^22,25, Ahc^23, Lys^26,30, Leu^28,31, Aib^29]hPTHrP(1-34)NH2] (H-AVSEHQLLHDKGKSIQDLRRRE[Ac6c]LEKLL[Aib]KLHTA-NH2; N-terminus assumed)"
30,–,"CCCC[C@H](NC(=O)[C@H](CO)NC(=O)[C@H](CC(N)=O)NC(=O)[C@H](CC(C)C)NC(=O)[C@H](Cc1c[nH]cn1)NC(=O)[C@H](CCCCN)NC(=O)CNC(=O)[C@H](CC1CCCCC1)NC(=O)[C@H](CC(N)=O)NC(=O)[C@H](Cc1c[nH]cn1)NC(=O)[C@H](CCCC)NC(=O)[C@H](CC1CCCCC1)NC(=O)[C@H](CCC(N)=O)NC(=O)[C@@H](NC(=O)[C@H](CCC(=O)O)NC(=O)[C@H](CO)NC(=O)[C@@H](NC(=O)[C@@H](N)CO)C(C)C)[C@@H](C)CC)C(=O)N[C@@H](CCC(=O)O)C(=O)N[C@@H](CCCNC(=N)N)C(=O)N[C@H](C(=O)N[C@@H](CCC(=O)O)C(=O)N[C@@H](Cc1c[nH]c2ccccc12)C(=O)N[C@@H](CC(C)C)C(=O)N[C@@H](CCCNC(=N)N)C(=O)N[C@@H](CCCCN)C(=O)N[C@@H](CCCCN)C(=O)N[C@@H](CC(C)C)C(=O)N[C@@H](CCC(N)=O)C(=O)N[C@@H](CC(=O)O)C(=O)N[C@H](C(=O)N[C@@H](Cc1c[nH]cn1)C(=O)N[C@@H](CC(N)=O)C(=O)NC(C)(C)C(N)=O)C(C)C)C(C)C [[Cha^7,11, Nle^8,18, Aib^34]hPTH(1-34)NH2] (H-SVSEIQ[Cha][Nle]HN[Cha]GKHLNS[Nle]ERVEWLRKKLQDVHN[Aib]-NH2)"
40,–,"CCCC[C@H](NC(=O)[C@H](CC(=O)O)NC(=O)[C@H](CCC(N)=O)NC(=O)[C@H](CC(C)C)NC(=O)[C@H](CCCCN)NC(=O)[C@H](CCCCN)NC(=O)[C@H](CCCNC(=N)N)NC(=O)[C@H](CC(C)C)NC(=O)[C@H](Cc1c[nH]c2ccccc12)NC(=O)[C@H](CCC(=O)O)NC(=O)[C@@H](NC(=O)[C@H](CCCNC(=N)N)NC(=O)C(C)(C)NC(=O)[C@H](CCCC)NC(=O)[C@H](CO)NC(=O)C(C)(C)NC(=O)[C@H](CC(C)C)NC(=O)[C@H](Cc1c[nH]cn1)NC(=O)[C@H](CCCCN)NC(=O)CNC(=O)[C@H](CC1CCCCC1)NC(=O)[C@H](CC(N)=O)NC(=O)[C@H](Cc1c[nH]cn1)NC(=O)[C@H](CCCC)NC(=O)[C@H](CC1CCCCC1)NC(=O)[C@H](CCC(N)=O)NC(=O)[C@@H](NC(=O)[C@H](CCC(=O)O)NC(=O)[C@H](CO)NC(=O)[C@@H](NC(=O)[C@@H](N)CO)C(C)C)[C@@H](C)CC)C(C)C)C(=O)N[C@@H](Cc1c[nH]cn1)C(=O)N[C@@H](CC(N)=O)C(=O)N[C@@H](Cc1ccc(O)cc1)C(N)=O [[Cha^7,11, Nle^8,18,31, Aib^16,19, Tyr^34]hPTH(1-34)NH2] (H-SVSEIQ[Cha][Nle]HN[Cha]GKHL[Aib]S[Nle][Aib]RVEWLRKKLQD[Nle]HNY-NH2)"
6,–,"CCCC[C@H](NC(=O)[C@H](CO)NC(=O)[C@H](CC(N)=O)NC(=O)[C@H](CC(C)C)NC(=O)[C@H](Cc1c[nH]cn1)NC(=O)[C@H](CCCCN)NC(=O)CNC(=O)[C@H](CC1CCCCC1)NC(=O)[C@H](CC(N)=O)NC(=O)[C@H](Cc1c[nH]cn1)NC(=O)[C@H](CCCC)NC(=O)[C@H](CC1CCCCC1)NC(=O)[C@H](CCC(N)=O)NC(=O)[C@@H](NC(=O)[C@H](CCC(=O)O)NC(=O)[C@H](CO)NC(=O)[C@@H](NC(=O)[C@@H](N)CO)C(C)C)[C@@H](C)CC)C(=O)N[C@@H](CCC(=O)O)C(=O)N[C@@H](CCCNC(=N)N)C(=O)N[C@H](C(=O)N[C@@H](CCC(=O)O)C(=O)N[C@@H](Cc1c[nH]c2ccccc12)C(=O)N[C@@H](CC(C)C)C(=O)N[C@@H](CCCNC(=N)N)C(=O)N[C@@H](CCCCN)C(=O)N[C@@H](CCCCN)C(=O)N[C@@H](CC(C)C)C(=O)N[C@@H](CCC(N)=O)C(=O)N[C@@H](CC(=O)O)C(=O)N[C@H](C(=O)N[C@@H](Cc1c[nH]cn1)C(=O)N[C@@H](CC(N)=O)C(=O)N[C@@H](Cc1ccc(O)cc1)C(N)=O)C(C)C)C(C)C [[Cha^7,11, Nle^8,18, Tyr^34]hPTH(1-34)NH2] (H-SVSEIQ[Cha][Nle]HN[Cha]GKHLNS[Nle]ERVEWLRKKLQDVHNY-NH2)"
